# Measurements reported in US6538037B2, “Methods for preparation and use of 1α,24(S)-dihydroxyvitamin D2” (Bone Care International, Inc., priority 1991, dated 2003).
# What was measured:
# LNCAP [1] = assay: Inhibition of cell proliferation, LNCAP; format: cell-based, human; conditions: 10^−11 M to 10^−7 M, 6-7 days
# Experimental: (§1) The cell lines, LNCAP and PC-3, which are derived from human prostate adenocarcinoma, are seeded in six-well tissue culture plates at a density of about 50,000 cells/plate. After the cells have attached and stabilized, about 2-3 days, the medium is replenished with medium containing vehicle or the active vitamin D analogue 1α,24-(OH)2D2, at concentrations from 10^−11 M to 10^−7 M. Medium containing test analogue or vehicle is replaced every three days. After 6-7 days, the medium is removed, the cells are rinsed, precipitated with cold 5% trichloroacetic acid, and washed with cold ethanol. The cells are solubilized with 0.2 N sodium hydroxide, and the amount of DNA determined by standard procedures.
# PC-3 = assay: Inhibition of cell proliferation, PC-3; format: cell-based, human; conditions: 10^−11 M to 10^−7 M, 6-7 days
# Experimental: as §1
# LNCAP [2] = assay: Cell differentiation, PSA production in LNCaP; format: cell-based, human; conditions: 10^−11 M to 10^−7 M, 6-7 days
# Experimental: Using the techniques of Skowronski et al., 132 Endocrinology (1993) 1952-1960 and 136 Endocrinology (1995) 20-26, both of which are incorporated herein by reference, cells of the cell line, LNCaP, which is derived from a human metastatic prostate adenocarcinoma and known to express PSA, are seeded in six-well tissue culture plates at a density of about 50,000 cells/plate. After the cells have attached and stabilized, about 2-3 days, the medium is replenished with medium containing vehicle or the active vitamin D analogue, 1α,24-(OH)2D2, at concentrations from 10^−11 M to 10^−7 M. After 6-7 days, medium is removed and stored at −20° C. for prostate specific antigen (PSA) analysis.
# The cells from parallel cultures are rinsed, precipitated, and the amount of DNA determined by standard procedures. PSA is measured by standard known methods.
# [3] = tested on: advanced androgen-independent prostate cancer; assay: Treatment of advanced androgen-independent prostate cancer, open-labeled study; format: in vivo, human; conditions: for progression of metastatic disease: after one and two years
# From the text: Patients with advanced androgen-independent prostate cancer participate in an open- labeled study of 1α,24-(OH)2D2. […] On admission to the study, patients begin a course of therapy with oral 1α,24-(OH)2D2 lasting 26 weeks, while discontinuing any previous use of calcium supplements, vitamin D supplements, and vitamin D hormone replacement therapies. During treatment, the patients are monitored at regular intervals for: (1) hypercalcemia, hyperphosphatemia, hypercalciuria, hyperphosphaturia and other toxicity; (2) evidence of changes in the progression of metastatic disease; and (3) compliance with the prescribed test drug dosage.
# The study is conducted in two phases. During the first phase, the maximal tolerated dosage (MTD) of daily oral 1α,24-(OH)2D2 is determined by administering progressively higher dosages to successive groups of patients. All doses are administered in the morning before breakfast. […] Subsequent groups of patients are treated with 50.0, 75.0 and 100.0 μg/day.
# During the second phase, patients are treated with 1α,24-(OH)2D2 for 24 months at 0.5 and 1.0 times the MTD.
compound,measurement,setting,value
"C=C1/C(=C\C=C2/CCC[C@]3(C)[C@@H]([C@H](C)/C=C/C(C)(O)C(C)C)CC[C@@H]23)C[C@@H](O)C[C@@H]1O (relative stereo) [1α,24-(OH)2D2, 5,6-cis-1α,24-dihydroxyvitamin D2]",cell number (amount of DNA) versus control cultures,LNCAP [1],significantly fewer cells than the control cultures
same,cell number (amount of DNA) versus control cultures,PC-3,significantly fewer cells than the control cultures
same,PSA expressed as mass of PSA/cell versus control cultures,LNCAP [2],significantly more PSA than control cultures
same,bone pain associated with metastatic disease,[3]; MTD for at least six months,significantly diminished
same,"maximum levels of circulating 1α,24-(OH)2D2",[3]; at the highest dosages,above 100 pg/mL
same,"circulating levels of 1α,25-(OH)2D3",[3]; during treatment,"suppressed, often to undetectable levels"
same,progression of metastatic disease,[3]; higher dosage (1.0 times the MTD),stable disease and partial or complete remission in many patients
same,"levels of circulating 1α,24-(OH)2D2 versus dosage",[3]; in vivo,increase proportionately with the dosage administered
same,serum and urine calcium,[3]; in vivo,elevated in a dose responsive manner
same,progression of metastatic disease,[3]; lower dosage (0.5 times the MTD),stable disease or partial remission in many patients
